Test results from patent publication US6753337B2, “Alkynyl containing hydroxamic acid compounds as matrix metalloproteinase/tace inhibitors” (Wyeth Holdings Corporation, priority 1999, dated 2004).
Where a name gives a salt, the structure may show the parent alone.

How the values were obtained:
[1] = target: TNF-α converting enzyme (TACE) (Homo sapiens, UniProt P78536); experiment: Test procedure for measuring TACE inhibition (fluorescent peptidyl substrate); assay type: biochemical
Description: Using 96-well black microtiter plates, each well receives a solution composed of 10 μL TACE (final concentration 1 μg/mL), 70 μL Tris buffer, pH 7.4 containing 10% glycerol (final concentration 10 mM), and 10 μL of test compound solution in DMSO (final concentration 1 μM, DMSO concentration <1%) and incubated for 10 minutes at room temperature. The reaction is initiated by addition of a fluorescent peptidyl substrate (final concentration 100 μM to each well and then shaking on a shaker for 5 sec.
The reaction is read (excitation 340 nm, emission 420 nm) for 10 min. and the increase in fluorescence over time is plotted as a linear line. The slope of the line is calculated and represents the reaction rate.
The mean (x±sem) of the control rate is calculated and compared for statistical significance (p<0.05) with drug-treated rates using Dunnett's multiple comparison test.

THP-1 cells = experiment: Human monocytic THP-1 cell differentiation assay for soluble proteins (THP-1 soluble protein assay); assay type: cell-based; conditions: LPS-stimulated THP-1 cells, soluble protein not given
Source text: Mitogenic stimulation of THP-1 cells cause differentiation into macrophage like cells with concomitant secretion of tumor necrosis factor (TNF-α) and TNF receptor (TNF-R p75/80 and TNF-R p55160) and Interleukin-8 (IL-8), among other proteins. In addition, non-stimulated THP-1 cells shed both the p75/80 and the p55/60 receptors over time. The release of membrane bound TNF-α and possibly TNF-R p75/80 and TNF-R p55/60, but not IL-8, is mediated by an enzyme called TNF-α converting enzyme or TACE.
THP-1 cells (from ATCC) are a human monocytic cell line which were obtained from the peripheral blood of a person with acute monocytic leukemia. They can be grown in culture and differentiated into macrophage like cells by stimulation with mitogens.
Each vial of cells are cultured for about two weeks prior to being used for an assay and then are used for only 4 to 6 weeks to screen compounds.
Cell exposure to DMSO was limited to 0.1% final concentration. […] Compounds can be evaluated for their effect on basal (non-stimulated) shedding of the receptors by replacing the LPS with […] of THP-1 media.
Plates are placed into an incubator set at 5% CO2 and at 37° C. After 4 hours of incubation, […] of tissue culture supernatant (TCS) is removed for use in an TNF-α ELISA. Following 24 hours of incubation, […] of TCS is removed and used for analysis in TNF-R p75/80, TNF-R p55160 and IL-8 ELISAs.
In addition, at the 24 hours timepoint, and the cells for each treatment group are collected by resuspension in 500 μl/well of THP-1 media and transferred into a FACS tube. […] The samples are run on a Becton Dickinson FaxCaliber FLOW cytometry machine and the amount of dye taken up by each cell is measured in the high red wavelength (FL3). Only cells with compromised membranes (dead or dying) can take up PI. The percent of live cells is calculated by the number of cells not stained with PI, divided by the total number of cells in the sample. The viability values calculated for the drug treated groups were compared to the viability value calculated for the vehicle treated mitogen stimulated group (“vehicle positive control”) to determine the “percent change from control”. This “percent change from control” value is an indicator of drug toxicity.
The quantity of soluble TNF-α, TNF-R p75/80 and TNF-R p55160 and IL-8 in the TCS of the THP-1 cell cultures are obtained with commercially available ELISAs from R&D Systems, by extrapolation from a standard curve generated with kit standards. The number of cells that either take up or exclude PI are measured by the FLOW cytometry machine and visualized by histograms using commercially available Cytologic software for each treatment group including all controls.
Biological variability in the magnitude of the response of THP-1 cell cultures requires that experiments be compared on the basis of percent change from “vehicle positive control” for each drug concentration. Percent change in each soluble protein evaluated from the “vehicle positive control” was calculated for each compound concentration with the following formula: [formula]
For the soluble protein (TNF-α, p75/80, p55/60, IL-8) studies under stimulated conditions, the mean pg/ml of duplicate wells were determined and the results expressed as percent change from “vehicle positive control”. For the soluble protein (p75/80 and p55/60 receptors) studies under non-stimulated conditions, the mean pg/ml of duplicate wells were determined and the results expressed as percent change from “vehicle positive control” utilizing the following formula: [formula]
IC50 values for each compound are calculated by non-linear regression analysis using customized software utilizing the JUMP statistical package.
For the cell viability studies, the viabilities (PI exclusion) of pooled duplicate wells were determined and the results expressed as % change from “vehicle positive control”.

MMP-9 = MMP-9 (Homo sapiens, UniProt P14780); experiment: MMP-9 inhibition (thiopeptide or fluorescent peptide substrate); assay type: biochemical; conditions: for IC50: read-out: MMP9 IC50
MMP-9, sequence (P14780 94-707): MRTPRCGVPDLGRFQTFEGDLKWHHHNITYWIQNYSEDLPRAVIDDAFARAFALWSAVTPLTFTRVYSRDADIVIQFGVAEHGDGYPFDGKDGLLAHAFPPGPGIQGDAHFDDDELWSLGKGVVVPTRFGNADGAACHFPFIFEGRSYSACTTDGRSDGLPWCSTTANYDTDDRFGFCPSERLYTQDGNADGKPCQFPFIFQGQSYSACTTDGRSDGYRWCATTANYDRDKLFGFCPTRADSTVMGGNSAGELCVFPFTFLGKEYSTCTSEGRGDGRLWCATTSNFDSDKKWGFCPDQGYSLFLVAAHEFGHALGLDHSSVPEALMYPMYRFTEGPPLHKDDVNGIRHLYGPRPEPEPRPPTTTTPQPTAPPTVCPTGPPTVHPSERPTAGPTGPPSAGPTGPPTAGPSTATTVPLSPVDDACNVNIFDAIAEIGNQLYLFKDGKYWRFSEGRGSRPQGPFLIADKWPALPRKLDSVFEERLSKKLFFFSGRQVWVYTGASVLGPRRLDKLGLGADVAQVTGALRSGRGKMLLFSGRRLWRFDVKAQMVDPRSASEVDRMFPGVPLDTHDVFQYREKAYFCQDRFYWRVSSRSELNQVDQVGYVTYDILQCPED
Description: (§1) These standard pharmacological test procedures are based on the cleavage of a thiopeptide substrates such as Ac-Pro-Leu-Gly(2-mercapto-4-methyl-pentanoyl)-Leu-Gly-OEt by the matrix metalloproteinases MMP-1, MMP-13 (collagenases) or MMP-9 (gelatinase), which results in the release of a substrate product that reacts colorimetrically with DTNB (5,5′-dithiobis(2-nitro-benzoic acid)). The enzyme activity is measured by the rate of the color increase. The thiopeptide substrate is made up fresh as a 20 mM stock in 100% DMSO and the DTNB is dissolved in 100% DMSO as a 100 mM stock and stored in the dark at room temperature. Both the substrate and DTNB are diluted together to 1 mM with substrate buffer (50 mM HEPES pH 7.5, 5 mM CaCl2) before use. The stock of enzyme is diluted with buffer (50 mM HEPES, pH 7.5, 5 mM CaCl2, 0.02% Brij) to the desired final concentration. The buffer, enzyme, vehicle or inhibitor, and DTNB/substrate are added in this order to a 96 well plate (total reaction volume of 200 μl) and the increase in color is monitored spectrophotometrically for 5 minutes at 405 nm on a plate reader and the increase in color over time is plotted as a linear line.
(§2) Alternatively, a fluorescent peptide substrate is used. In this test procedure, the peptide substrate contains a fluorescent group and a quenching group. Upon cleavage of the substrate by an MMP, the fluorescence that is generated is quantitated on the fluorescence plate reader. The assay is run in HCBC assay buffer (50 mM HEPES, pH 7.0, 5 mM Ca^+2, 0.02% Brij, 0.5% Cysteine), with human recombinant MMP-1, MMP-9, or MMP-13. The substrate is dissolved in methanol and stored frozen in 1 mM aliquots. For the assay, substrate and enzymes are diluted in HCBC buffer to the desired concentrations. Compounds are added to the 96 well plate containing enzyme and the reaction is started by the addition of substrate. The reaction is read (excitation 340 nm, emission 444 nm) for 10 min. and the increase in fluorescence over time is plotted as a linear line.
(§3) For either the thiopeptide or fluorescent peptide test procedures, the slope of the line is calculated and represents the reaction rate. The linearity of the reaction rate is confirmed (r^2>0.85). The mean (x±sem) of the control rate is calculated and compared for statistical significance (p<0.05) with drug-treated rates using Dunnett's multiple comparison test. Dose-response relationships can be generated using multiple doses of drug and IC50 values with 95% CI are estimated using linear regression.

MMP-13 = MMP-13 (Homo sapiens, UniProt P45452); experiment: MMP-13 inhibition (thiopeptide or fluorescent peptide substrate); assay type: biochemical; conditions: for IC50: read-out: MMP13 IC50
Description: The enzyme activity is measured by the rate of the color increase. The thiopeptide substrate is made up fresh as a 20 mM stock in 100% DMSO and the DTNB is dissolved in 100% DMSO as a 100 mM stock and stored in the dark at room temperature. Both the substrate and DTNB are diluted together to 1 mM with substrate buffer (50 mM HEPES pH 7.5, 5 mM CaCl2) before use. The stock of enzyme is diluted with buffer (50 mM HEPES, pH 7.5, 5 mM CaCl2, 0.02% Brij) to the desired final concentration.
as §2, with “substrate.” for “substrate. The reaction is read (excitation 340 nm, emission 444 nm) for 10 min. and the increase in fluorescence over time is plotted as a linear line.”
For either the thiopeptide or fluorescent peptide test procedures, the slope of the line is calculated and represents the reaction rate. […] The mean (x±sem) of the control rate is calculated and compared for statistical significance (p<0.05) with drug-treated rates using Dunnett's multiple comparison test.

MMP-1 = target: T1, MMP-1 (Homo sapiens, UniProt P03956); experiment: MMP-1 inhibition (thiopeptide or fluorescent peptide substrate); assay type: biochemical; conditions: for IC50: read-out: MMP1 IC50
T1 sequence (P03956 100-469): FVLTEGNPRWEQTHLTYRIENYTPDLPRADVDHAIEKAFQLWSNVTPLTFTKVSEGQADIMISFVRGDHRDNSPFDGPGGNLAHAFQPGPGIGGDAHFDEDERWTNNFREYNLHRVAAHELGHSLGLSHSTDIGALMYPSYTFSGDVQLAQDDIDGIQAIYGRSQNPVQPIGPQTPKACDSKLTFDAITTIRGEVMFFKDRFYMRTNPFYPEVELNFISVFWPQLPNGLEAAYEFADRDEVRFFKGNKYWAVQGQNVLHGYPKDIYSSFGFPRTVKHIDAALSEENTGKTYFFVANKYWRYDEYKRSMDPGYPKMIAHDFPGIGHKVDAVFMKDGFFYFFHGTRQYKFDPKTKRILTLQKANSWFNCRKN
Description: as §1, §2, §3

TNF-α converting enzyme (TACE), sequence (P78536 215-824): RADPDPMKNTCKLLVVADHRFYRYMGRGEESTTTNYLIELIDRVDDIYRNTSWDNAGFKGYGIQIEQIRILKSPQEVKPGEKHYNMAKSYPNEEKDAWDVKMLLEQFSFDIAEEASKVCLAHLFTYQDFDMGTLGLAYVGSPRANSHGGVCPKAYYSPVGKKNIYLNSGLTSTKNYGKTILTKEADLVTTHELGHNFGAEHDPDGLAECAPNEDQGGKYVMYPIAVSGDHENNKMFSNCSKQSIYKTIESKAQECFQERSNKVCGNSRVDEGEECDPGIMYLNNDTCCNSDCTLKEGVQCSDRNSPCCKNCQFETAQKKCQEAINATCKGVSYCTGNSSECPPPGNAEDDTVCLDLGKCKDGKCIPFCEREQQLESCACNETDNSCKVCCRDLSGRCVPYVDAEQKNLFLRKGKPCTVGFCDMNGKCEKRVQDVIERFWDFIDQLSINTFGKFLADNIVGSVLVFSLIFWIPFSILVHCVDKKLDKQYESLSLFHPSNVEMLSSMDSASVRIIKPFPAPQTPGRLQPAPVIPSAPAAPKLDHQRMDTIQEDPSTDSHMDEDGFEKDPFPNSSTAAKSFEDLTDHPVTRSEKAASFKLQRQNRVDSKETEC

SMILES	IC50 [1]	IC50 (MMP-9)	IC50 (MMP-13)	inhibition at 3 µM (THP-1 cells)	further results
CC#CCOc1ccc(S(=O)(=O)C2(C(=O)NO)CCN(Cc3ccc(Cl)c(Cl)c3)CC2)cc1 (as salt: HCl) [Example 10, 4-(4-But-2-ynyloxy-benzenesulfonyl)-1-(3,4-dichloro-benzyl)-piperidine-4-carboxylic acid hydroxyamide]	–	–	–	–	melting point: 213 °C
CCCCCC#CCOc1ccc(S(=O)(=O)C2(C(=O)NO)CCN(Cc3ccc(Br)cc3)CC2)cc1 (as salt: hydrochloride) [Example 6, 1-(4-Bromo-benzyl)-4-(4-oct-2-ynyloxy-benzenesulfonyl)-piperdine-4-carboxylic acid hydroxyamide]	–	–	–	–	melting point: 140 °C
O=C(NO)C1(S(=O)(=O)c2ccc(OCC#CCN3CCOCC3)cc2)CCN(Cc2ccc(Br)cc2)CC1 [Example 13, 1-(4-Bromo-benzyl)-4-[4-(4-morpholin-4-yl-but-2-ynyloxy)-benzenesulfonyl]-piperdine-4-carboxylic acid hydroxyamide]	882 nM	2000 nM	800 nM	69%	–
CC#CCOc1ccc(SC2(C(=O)NO)CCNCC2)cc1 [Example 15, 4-(4-But-2-ynyloxy-phenylsulfanyl)-piperidine-4-carboxylic acid hydroxyamide]	–	–	–	–	inhibition at 1 µM [1]: 38%; MMP1 % inhibition (MMP-1; printed in the MMP1 IC50 column, concentration not given): 24%; MMP9 % inhibition (MMP-9; printed in the MMP9 IC50 column, concentration not given): 25%; MMP13 % inhibition (MMP-13; MMP13 IC50, concentration not given): 24%
CC#CCOc1ccc(SCC2(C(=O)NO)CCOCC2)cc1 [Example 17, 4-(4-But-2-ynyloxy-phenylsulfanylmethyl)-tetrahydro-pyran-4-carboxylic acid hydroxyamide]	139 nM	2300 nM	946 nM	0%	–
CC#CCOc1ccc(S(=O)(=O)CC2(C(=O)NO)CCOCC2)cc1 [Example 18, 4-(4-But-2-ynyloxy-benzenesulfonylmethyl)-tetrahydro-pyran-4-carboxylic acid hydroxyamide]	11.4 nM	1280 nM	98 nM	45%	–

Second part, led by results:

IC50 [1]	IC50 (MMP-9)	IC50 (MMP-13)	SMILES	inhibition at 3 µM (THP-1 cells)	further results
74 nM	–	1320 nM	CC#CCOc1ccc([S+]([O-])CC2(C(=O)NO)CCOCC2)cc1 (centres unmarked) [Example 19, 4-(4-But-2-ynyloxy-benzenesulfinylmethyl)-tetrahydro-pyran-4-carboxylic acid hydroxyamide]	4%	–
18 nM	8580 nM	1020 nM	CC#CCOc1ccc(S(=O)(=O)CC2(C(=O)NO)CCN(CC#CC)CC2)cc1 [Example 37, 1-(2-Butynyl)-4-({[4-(2-butynyloxy)phenyl]sulfonyl}methyl)-N-hydroxy-4-piperidinecarboxamide hydrochloride]	–	IC50 (MMP-1): 8600 nM
11 nM	4280 nM	809 nM	CC#CCOc1ccc(S(=O)(=O)CC2(C(=O)NO)CCN(C(=O)OC)CC2)cc1 [Example 39, Methyl 4-({[4-(2-butynyloxy)phenyl]sulfonyl}methyl)-4-[(hydroxyamino)-carbonyl]-1-piperidinecarboxylate]	–	IC50 (MMP-1): 3770 nM
